From US8519188B2, “Compounds which can be used for the treatment of cancers” (Marc-Henry Pitty, priority 2008, dated 2013) come the findings set out here.

Data set [1] has as its system MCF-7/adr adriamycin-resistant breast cancer cell line. Nature of the data set: Cell proliferation (CellTiter 96 AQueous MTS/PMS), MCF-7/adr. Format: cell-based. Conditions: for IC50: Homo sapiens, NCI/ADR-RES, MCF-7/adr, 72 hours of incubation, concentration that induces the death of 50% of the cells, read-out: CI50 for various cell lines (nM) MCF-7/adr. The protocol: (§1) The effects of the compounds of the invention on the proliferation of cancer cells were studied on various human cancer cell lines of various tissue origins (MCF-7: breast cancer, MCF-7/adr adriamycin-resistant breast cancer, ARH-77: myeloma, ARH-77/Dox: doxorubicin (other name for adriamycin)-resistant myeloma, HL-60: acute promyelocytic leukaemia, HL-60/R10: doxorubicin-resistant acute promyelocytic leukaemia). The cancer cells used for this study were incubated at 37° C. in the presence of one of the compounds of the invention added to the culture medium at various concentrations.
(§2) The cancer cell lines originate from the ATCC (American Type Culture Collection) in the case of MCF-7, ARH-77 and HL-60, from Pharmacell (Paris, France) for HL-60/R10, from Oncodesign (Dijon, France) for ARH-77/Dox and from the Pitié Salpetrière Hospital for MCF-7/adr. They were cultivated in a RPMI 1640 medium containing 2 mM L-glutamine and supplemented with 10% foetal calf serum. All the cell lines were maintained in culture at 37° C. in a moist atmosphere containing 5% CO2. Cell proliferation was evaluated using the “CellTiter 96® AQueous” reagent (Promega, Wis., USA) while adhering to the manufacturer's instructions. The cells were seeded in 96-well culture plates in a proportion of from 5,000 to 10,000 cells per well in 200 μl of culture medium. After 24 hours of preincubation at 37° C., the compounds of the invention dissolved in dimethyl sulphoxide (DMSO) were added individually to each of the wells in a proportion of 2 μl per well. After 72 hours of incubation at 37° C. in a moist atmosphere containing 5% CO2, 40 μL of a MTS/PMS ([3-(4,5-dimethylthiazol-2-yl)-5-(3-carboxymethoxyphenyl)-2-(4-sulphophenyl)-2H-tetrazolium phenazine methosulphate) solution were added to each well.

Data set [2] has as its system MCF-7 breast cancer cell line. Nature of the data set: Cell proliferation (CellTiter 96 AQueous MTS/PMS), MCF-7. It counts as cell-based. Conditions: MCF7; for IC50: Homo sapiens, MCF-7, 72 hours of incubation, concentration that induces the death of 50% of the cells, read-out: CI50 for various cell lines (nM) MCF-7. As for the experimental part:
as §1, §2

Data set [3] has as its system HL-60 acute promyelocytic leukaemia cell line. Description: Cell proliferation (CellTiter 96 AQueous MTS/PMS), HL-60. Format: cell-based, human. Conditions: for IC50: Homo sapiens, HL-60, 72 hours of incubation, read-out: CI50 for various cell lines (nM) HL-60. The protocol: as §1, §2
Data set [4] has as its system HL-60/R10 doxorubicin-resistant acute promyelocytic leukaemia cell line. Description: Cell proliferation (CellTiter 96 AQueous MTS/PMS), HL-60/R10. The settings on record: for IC50: Homo sapiens, HL-60/R10, 72 hours of incubation, read-out: CI50 for various cell lines (nM) HL-60/R10. It counts as cell-based, human. As for the experimental part: as §1, §2
The subject of a further data set is ARH-77 myeloma cell line. Nature of the data set: Cell proliferation (CellTiter 96 AQueous MTS/PMS), ARH-77. It counts as cell-based. Conditions: Homo sapiens, 72 hours of incubation, read-out: CI50 for various cell lines (nM) ARH-77. The protocol:
as §1, §2

In data set [5] the test system is ARH-77/Dox doxorubicin-resistant myeloma cell line. Nature of the data set: Cell proliferation (CellTiter 96 AQueous MTS/PMS), ARH-77/Dox. It counts as cell-based. The settings on record: Homo sapiens, 72 hours of incubation, read-out: CI50 for various cell lines (nM) ARH-77/Dox. The protocol: as §1, §2

Where a SMILES comes first, the peptide text is derived from it. [ ]: non-standard residue; d: D form. The star is where a group is joined. ξ: configuration not given here. ξV = CC(C)C(N)C(=O)O; BrAc = O=C(CBr)*

In the case of `CC(C)C(NC(=O)CBr)C(=O)NCC(=O)O` (centres unmarked) [BADLG, reference compound] (BrAc-[ξV]-Gly-OH), the “cytotoxic activity (concentration at which detected)” value in data set [1] (MCF7/adr, no cytotoxic activity detected for concentrations below 10 μM, same conditions as above) was not below 10 µM; in data set [2] (no cytotoxic activity detected for concentrations below 10 μM, same conditions as above), not below 10 µM; in data set [3] (HL60, no cytotoxic activity detected for concentrations below 10 μM, same conditions as above), not below 10 µM; in data set [4] (HL60/R10, no cytotoxic activity detected for concentrations below 10 μM, same conditions as above) it was not below 10 µM.
As to `C#CC(=O)N(c1cccc(C(F)(F)F)c1)C(C(=O)NCc1ccccc1)c1cccs1` (centres unmarked) [Compound 1, Propynoic Acid (benzylcarbamoylthiophen-2-yl-methyl)-(3-trifluoromethylphenyl)amide], the IC50 was determined as 1.6 nM in data set [1]; 224 nM in data set [2]; 46 nM in the data set on ARH-77 myeloma cell line; 12 nM in data set [5]; 1340 nM in data set [3]; 32 nM in data set [4].
Consider `C#CC(=O)N(c1ccc(C(F)(F)F)cc1)C(C(=O)NC1CCCCC1)c1cccs1` (centres unmarked) [Compound 2, Propynoic Acid (cyclohexylcarbamoylthiophen-2-yl-methyl)-(4-trifluoromethylphenyl)amide], for which the IC50 in data set [1] came out at 0.7 nM; in data set [2], 150 nM; in the data set with ARH-77 myeloma cell line it was 92 nM; in data set [5] it was 6 nM; in data set [3] it was 2080 nM; in data set [4], 95 nM.
For the compound `C#CC(=O)N(c1ccc(C(F)(F)F)cc1)C(C(=O)NCc1ccccc1)c1cccs1` (centres unmarked) [Compound 4, Propynoic Acid (benzylcarbamoylthiophen-2-yl-methyl)-(4-trifluoromethylphenyl)amide], the IC50 was determined as 0.9 nM in data set [1]; 103 nM in the data set with ARH-77 myeloma cell line; 25 nM in data set [5]; 1630 nM in data set [3]; 76 nM in data set [4].
For the compound `C#CC(=O)N(c1cccc(C(F)(F)F)c1)C(C(=O)NCc1ccccc1)c1ccc(C)s1` (centres unmarked) [Compound 21, Propynoic Acid [benzylcarbamoyl-(5-methylthiophen-2-yl)-methyl]-(3-trifluoromethylphenyl)amide], the IC50 was determined as 60 nM in the data set on ARH-77 myeloma cell line, 6 nM in data set [5], 2020 nM in data set [3] and 43 nM in data set [4].
Turning to `O=C(NC1CCCCC1)C(c1cccs1)N(C(=O)CCl)c1ccc(C(F)(F)F)cc1` (centres unmarked) [Compound 129, 2-[(2-Chloroacetyl)-(4-trifluoromethylphenyl)amino]-N-cyclohexyl-2-thiophen-2-yl-acetamide], the IC50 came out at 3.6 nM in data set [1] and 77 nM in data set [2].
Taken in the same sequence, the figures for `O=C(CN(C(=O)CCl)c1cccc(C(F)(F)F)c1)NC1CCCCC1` [Compound 130, 2-Chloro-N-cyclohexylcarbamoylmethyl-N-(3-trifluoromethylphenyl)acetamide] were 34 nM and 203 nM.
Taken in the same sequence, the figures for `O=C(NC1CCCCC1)C(c1cccs1)N(C(=O)CCl)c1cccc2ccccc12` (centres unmarked) [Compound 134, 2-[(2-Chloroacetyl)naphthalen-1-yl-amino]-N-cyclohexyl-2-thiophen-2-yl-acetamide] were 74 nM and more than 1000 nM.
In the case of `O=C(NC1CCCCC1)C(c1cccs1)N(C(=O)CCl)c1ccc2c(c1)OCO2` (centres unmarked) [Compound 135, 2-[1,3-Benzodioxol-5-yl-(2-chloroacetyl)amino]-N-cyclo hexyl-2-thiophen-2-yl-acetamide], the IC50 in data set [1] is 19 nM; in data set [2] it was 285 nM.
On the same counts, the results for `COC(=O)CCNC(=O)C(c1cccs1)N(C(=O)CCl)c1cccc(C(F)(F)F)c1` (centres unmarked) [Compound 139, 3-{2-[(2-Chloroacetyl)-(3-trifluoromethylphenyl)amino]-2-thiophen-2-yl-acetylamino}propionic acid methyl ester] are 63 nM and 468 nM.
On to `CN(C)c1ccc(C(C(=O)NC2CCCCC2)N(C(=O)CCl)c2cccc(C(F)(F)F)c2)cc1` (centres unmarked) [Compound 147], for which the results for the IC50 in data set [1] and in data set [2] were 1.1 nM and 92 nM, respectively.
For `O=C(NC1CCCCC1)C(c1ccc(N2CCCC2)cc1)N(C(=O)CCl)c1cccc(C(F)(F)F)c1` (centres unmarked) [Compound 150], the IC50 in data set [1] stood at 0.6 nM; in data set [2] it was 230 nM.
Regarding `COC(=O)c1cccc(NC(=O)C(c2cccs2)N(C(=O)CCl)c2cccc(C(F)(F)F)c2)c1` (centres unmarked) [Compound 153], the IC50 in data set [1] was 1.3 nM; in data set [2] it was 79 nM.
On the same counts, the results for `COC(=O)c1ccc(NC(=O)C(c2cccs2)N(C(=O)CCl)c2cccc(C(F)(F)F)c2)cc1` (centres unmarked) [Compound 154] are 3.5 nM and 88 nM.
Consider `CC(C)(C(=O)NCc1ccc(F)cc1)N(C(=O)CCl)c1ccc(F)cc1` [Compound 185, 2-[(2-Chloroacetyl)-(4-fluoro-phenyl)-amino]-N-(4-fluoro-benzyl)-2-methyl-propionamide], for which the IC50 in data set [1] is 127 nM; in data set [2], 2790 nM.
For `COc1ccc(CNC(=O)C(C)(C)N(C(=O)CCl)c2ccc(F)cc2)cc1` [Compound 186, 2-[(2-Chloro-acetyl)-(4-fluoro-phenyl)-amino]-N-(4-methoxy-benzyl)-2-methyl-propionamide], the figures for the IC50 in data set [3] and in data set [4] were 362 nM and 78 nM, respectively.
On to `COc1ccc(CNC(=O)C(C)(C)N(C(=O)CCl)c2ccc(Oc3ccccc3)cc2C)cc1` [Compound 187, 2-[(2-Chloro-acetyl)-(2-methyl-4-phenoxy-phenyl)-amino]-N-(4-methoxy-benzyl)-2-methyl-propionamide], for which the figures for the IC50 in data set [1] and in data set [2] were 99 nM and 1130 nM, respectively.
Regarding `Cc1c(Cl)cccc1N(C(=O)CCl)C(C)(C)C(=O)NCc1ccc(F)cc1` [Compound 188, 2-[(2-Chloro-acetyl)-(3-chloro-2-methyl-phenyl)-amino]-N-(4-fluoro-benzyl)-2-methyl-propionamide], the values for the IC50 in data set [3] and in data set [4] were 2500 nM and 176 nM, respectively.
In the case of `CN1CCN(CCCOc2ccc(C(C(=O)NC3CCCCC3)N(C(=O)CCl)c3cccc(C(C)(C)C)c3)cc2)CC1` (centres unmarked) [Compound 189, 2-[(3-tert-Butyl-phenyl)-(2-chloro-acetyl)-amino]-N-cyclohexyl-2-[4-[3-(4-methyl-piperazin-1-yl)-propoxy]-phenyl]-acetamide], the results for the IC50 in data set [1] and in data set [2] were 72 nM and 360 nM, respectively.
For `CC(C)c1ccc(N(C(=O)CCl)C(C(=O)NC2CCCCC2)c2ccc(OCCCN3CCN(C)CC3)cc2)c(F)c1` (centres unmarked) [Compound 192, 2-[(2-Chloro-acetyl)-(2-fluoro-4-isopropyl-phenyl)-amino]-N-cyclohexyl-2-{4-[3-(4-methyl-piperazin-1-yl)-propoxy]-phenyl}-acetamide], the IC50 was determined as 524 nM in data set [3] and 140 nM in data set [4].
For `O=C(C(c1cccs1)N(C(=O)CCl)c1cccc(C(F)(F)F)c1)N1CCN(C2CCCCC2)CC1` (centres unmarked) [Compound 197], the IC50 in data set [1] was 37 nM; in data set [2], 1380 nM.
As for `O=C(OCc1ccccc1)N1CCN(C(=O)C(c2cccs2)N(C(=O)CCl)c2cccc(C(F)(F)F)c2)CC1` (centres unmarked) [Compound 198, 4-{2-[(2-chloro-acetyl)-(3-trifluoromethyl-phenyl)-amino]-2-thiophen-2-yl-acetyl}-piperazine-1-carboxylic acid benzyl ester], the IC50 in data set [1] was found to be 55 nM; in data set [2], 1080 nM.
Taken in the same sequence, the figures for `CC(C)c1cccc(N(C(=O)CCl)C(C(=O)N2CCN(C3CCCCC3)CC2)c2cccs2)c1` (centres unmarked) [Compound 199] were 23 nM and 1860 nM.
Turning to `CN(C(=O)N1CCN(C(=O)C(c2cccs2)N(C(=O)CCl)c2cccc(C(F)(F)F)c2)CC1)c1ccccc1` (centres unmarked) [Compound 204, 4-{2-[(2-Chloroacetyl)-(3-trifluoromethylphenyl)-amino]-2-thiophen-2-yl-acetyl}piperazine-1-carboxylic acid methylphenyl-amide], the IC50 turned out to be 89 nM in data set [1] and 741 nM in data set [2].
Take `O=C(OCc1ccccc1)N1CCN(C(=O)C(c2cccs2)N(C(=O)CCl)c2ccc(Oc3ccccc3)cc2)CC1` (centres unmarked) [Compound 206]: the IC50 in data set [1] amounted to 38 nM; in data set [2], 2500 nM.
